“Also recorded” adds a separate entry of the source.
Assay: Incorporation of vancomycin into acid-catalyzed (AC) and acid-base catalyzed (ABC) sols: clear vs cloudy (precipitation)
Type: physicochemical
Experimental: TEOS (10 ml) and 0.1 M HCl (2.4 ml), with or without the addition of deionized water, were mixed using a magnetic stirrer until a one-phase sol was formed. The water/TEOS molar ratio varied from 0 to 10. Pharmaceutical agents were then added to the sol. For example, Sols with 20 mg/g and 30 mg/g of vancomycin (drug to SiO2 ratio), and sols with 50 mg/g and 80 mg/g of bupivacaine per gram SiO2 were made by adding corresponding amounts of the drug. The sol containing added pharmaceutical agents was mixed for 30 minutes at 660 rpm and was then allowed to stand for 15 minutes. Subsequently, 0.08 M NH4OH (2.2-2.4 ml) was added dropwise to the sol, which was stirred at 660 rpm targeting a final pH of about 5.5. Under these conditions, the time to gelation varied from about 20 and 40 minutes. Upon mixing, the sol was added dropwise into vegetable oil stirred at speeds between 220 and 440 rpm and microspheres precipitated to the bottom of the beaker. Microspheres were filtered through a 70 μm nylon microporous filter and then rinsed with DI water and alcohol. The microspheres were left to dry overnight in a laminar flow hood.
Vancomycin (vancomycin-HCl; Abbott Labs, Chicago, Ill.) dissolved in water at 100 mg/ml was used for incorporation into the sols. Bupivacaine (Spectrum, New Brunswick, N.J.) dissolved in methanol at 70 mg/ml was also used for incorporation into the sols.
The effect of water content on the incorporation of vancomycin into the sol was studied by using either “water-free” (no additional water added other than that contained in the aqueous HCl solution) acid-catalyzed sols or sols with added water/TEOS molar ratios (R) of 5, 6, 8, and 10. […] When water was added at R=4, low doses of vancomycin such as 16.7 mg/g SiO2 could be added to the acid-catalyzed sol.

Structure (SMILES): CN[C@H](CC(C)C)C(=O)N[C@H]1C(=O)N[C@@H](CC(N)=O)C(=O)N[C@H]2C(=O)N[C@H]3C(=O)N[C@H](C(=O)N[C@H](C(=O)O)c4cc(O)cc(O)c4-c4cc3ccc4O)[C@H](O)c3ccc(c(Cl)c3)Oc3cc2cc(c3O[C@@H]2O[C@H](CO)[C@@H](O)[C@H](O)[C@H]2O[C@H]2C[C@](C)(N)[C@H](O)[C@H](C)O2)Oc2ccc(cc2Cl)[C@H]1O [Vancomycin, vancomycin]
- appearance of sol on incorporation of vancomycin (water-free AC sol, vancomycin loading 16.7 mg/g): cloudy
- appearance of sol on incorporation of vancomycin (water/TEOS R=4, ABC sol (after base), loading 16.7 mg/g): precipitation of vancomycin was seen; also recorded: cloudy
- appearance of sol on incorporation of vancomycin (water/TEOS R=4, AC sol, loading 16.7 mg/g): clear
- appearance of sol on incorporation of vancomycin (water/TEOS R=5, ABC sol (after base), loading 28 mg/g): vancomycin precipitation was observed; also recorded: cloudy
- appearance of sol on incorporation of vancomycin (water/TEOS R=5, ABC sol, loading 16.7 mg/g): clear
- appearance of sol on incorporation of vancomycin (water/TEOS R=5, ABC sol, loading 22.2 mg/g): clear
- appearance of sol on incorporation of vancomycin (water/TEOS R=5, AC sol, loading 16.7 mg/g): clear
- appearance of sol on incorporation of vancomycin (water/TEOS R=5, AC sol, loading 22.2 mg/g): clear
- appearance of sol on incorporation of vancomycin (water/TEOS R=5, AC sol, loading 28 mg/g): clear
- precipitation after the addition of the drug and base (water/TEOS R=5, doses up to 20 mg/g SiO2): no precipitation was observed
- appearance of sol on incorporation of vancomycin (water/TEOS R=8, ABC sol, loading 22.2 mg/g): clear
- appearance of sol on incorporation of vancomycin (water/TEOS R=8, ABC sol, loading 33 mg/g): clear
- appearance of sol on incorporation of vancomycin (water/TEOS R=8, AC sol, loading 22.2 mg/g): clear
- appearance of sol on incorporation of vancomycin (water/TEOS R=8, AC sol, loading 33 mg/g): clear
- appearance of sol on incorporation of vancomycin (water/TEOS R=10, ABC sol, loading 22.2 mg/g): clear
- appearance of sol on incorporation of vancomycin (water/TEOS R=10, AC sol, loading 22.2 mg/g): clear
- incorporation of higher loads into the sol (water/TEOS ratios 8 and above, load such as 28 mg/g SiO2): successfully incorporated
